According to ChEMBL document CHEMBL1201862, “PubChem BioAssay data set” (2004):
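Growth conditions: 96-well plates. Treatment: test compound, 48 hours, 5 concentrations. Analysis: linear interpolation between bracketing concentrations; unreached endpoints set to highest concentration. GI50 is the concentration that inhibits growth by half.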 Calls of active or inactive are those of the source. No stated cut-off is given here; in the data, active = GI50 up to about 1.1 µM and inactive = higher.

Columns and labels:
Assay in all cases: NCI-60 cell line screen, 48 h
OVCAR-3 = system: OVCAR-3
SF-539 = system: SF-539
CAKI-1 = system: CAKI-1
EKVX = system: EKVX
A549 = system: A549
RPMI-8226 = system: RPMI-8226
HOP-18 = system: HOP-18
LXFL 529 = system: LXFL 529
HOP-62 = system: HOP-62
Malme-3M = system: Malme-3M
SW-620 = system: SW-620
SF-268 = system: SF-268
M14 = system: M14
SNB-75 = system: SNB-75
DMS-273 = system: DMS-273
SN12C = system: SN12C
NCI-H226 = system: NCI-H226
RXF 631 = system: RXF 631
CCRF-CEM = system: CCRF-CEM
UO-31 = system: UO-31
ACHN = system: ACHN
HCC 2998 = system: HCC 2998
SK-OV-3 = system: SK-OV-3
HL-60 = system: HL-60
KM-20L2 = system: KM-20L2
OVCAR-4 = system: OVCAR-4
UACC-62 = system: UACC-62
KM12 = system: KM12
DMS-114 = system: DMS-114
K562 = system: K562
OVCAR-8 = system: OVCAR-8
NCI-H460 = system: NCI-H460
786-0 = system: 786-0
DLD-1 = system: DLD-1
UACC-257 = system: UACC-257
MOLT-4 = system: MOLT-4
OVCAR-5 = system: OVCAR-5
HCT-15 = system: HCT-15
SNB-19 = system: SNB-19
IGROV-1 = system: IGROV-1
NCI-H23 = system: NCI-H23
SK-MEL-5 = system: SK-MEL-5
U-251 = system: U-251
COLO 205 = system: COLO 205
HOP-92 = system: HOP-92
SK-MEL-28 = system: SK-MEL-28
TK-10 = system: TK-10
HT-29 = system: HT-29
HCT-116 = system: HCT-116
M19-MEL = system: M19-MEL
SNB-78 = system: SNB-78
A498 = system: A498
SF-295 = system: SF-295
RXF 393 = system: RXF 393
LOX IMVI = system: LOX IMVI
NCI-H522 = system: NCI-H522
XF498 = system: XF498
SK-MEL-2 = system: SK-MEL-2

Measured: GI50

Cc1cccc(Cl)c1NC(N)=S
inactive: OVCAR-3 26.4 µM | SF-539 33.7 µM | CAKI-1 43.7 µM | EKVX 48.2 µM | A549 82.8 µM | RPMI-8226 19 µM | HOP-18 11.1 µM | LXFL 529 31.8 µM | HOP-62 50.8 µM | Malme-3M 52 µM | SW-620 16.6 µM | SF-268 51.3 µM | M14 87.5 µM | SNB-75 47.1 µM | DMS-273 20.5 µM | SN12C > 100 µM | NCI-H226 82.8 µM | RXF 631 35.9 µM | CCRF-CEM 35.6 µM | UO-31 51.6 µM | ACHN 27.5 µM | HCC 2998 > 100 µM | SK-OV-3 44.4 µM | HL-60 38.4 µM | KM-20L2 50.8 µM | OVCAR-4 50.9 µM | UACC-62 69.7 µM | KM12 > 100 µM | DMS-114 18.5 µM | K562 28.3 µM | OVCAR-8 25.8 µM | NCI-H460 51.3 µM | 786-0 20.2 µM | DLD-1 57.7 µM | UACC-257 > 100 µM | MOLT-4 47.1 µM | OVCAR-5 63.8 µM | SNB-19 81.5 µM | IGROV-1 35.4 µM | NCI-H23 83 µM | SK-MEL-5 > 100 µM | U-251 20.8 µM | COLO 205 > 100 µM | HOP-92 35.4 µM | SK-MEL-28 55.1 µM | TK-10 50.9 µM | HT-29 43.4 µM | HCT-116 17.4 µM | M19-MEL > 100 µM | SNB-78 77.1 µM | A498 66.7 µM | SF-295 73.8 µM
18.4 µM: HCT-15

CN(C)CCn1cnc2sc3ccccc3c21
inactive: OVCAR-3 > 100 µM | SF-539 > 100 µM | CAKI-1 95.3 µM | EKVX > 100 µM | A549 > 100 µM | HOP-18 20.2 µM | LXFL 529 > 100 µM | HOP-62 > 100 µM | RXF 393 82.8 µM | Malme-3M > 100 µM | LOX IMVI > 100 µM | NCI-H522 > 100 µM | SW-620 > 100 µM | XF498 > 100 µM | SF-268 > 100 µM | M14 > 100 µM | SNB-75 22.2 µM | SN12C > 100 µM | SK-MEL-2 > 100 µM | NCI-H226 40.4 µM | RXF 631 > 100 µM | CCRF-CEM > 100 µM | ACHN > 100 µM | HCC 2998 > 100 µM | SK-OV-3 > 100 µM | KM-20L2 > 100 µM | OVCAR-4 > 100 µM | UACC-62 > 100 µM | KM12 > 100 µM | DMS-114 > 100 µM | K562 > 100 µM | OVCAR-8 > 100 µM | NCI-H460 > 100 µM | 786-0 > 100 µM | UACC-257 > 100 µM | MOLT-4 > 100 µM | OVCAR-5 > 100 µM | SNB-19 > 100 µM | IGROV-1 > 100 µM | NCI-H23 > 100 µM | SK-MEL-5 > 100 µM | U-251 > 100 µM | COLO 205 > 100 µM | SK-MEL-28 > 100 µM | TK-10 > 100 µM | HT-29 > 100 µM | HCT-116 > 100 µM | M19-MEL > 100 µM | SNB-78 > 100 µM | A498 > 100 µM | SF-295 > 100 µM
> 100 µM: HCT-15

O=C(NCCO)c1cc2c(cn1)[nH]c1ccccc12
inactive: OVCAR-3 > 100 µM | SF-539 > 100 µM | CAKI-1 > 100 µM | EKVX > 100 µM | A549 > 100 µM | RPMI-8226 > 100 µM | LXFL 529 > 100 µM | HOP-62 17.9 µM | RXF 393 > 100 µM | Malme-3M 22.1 µM | LOX IMVI > 100 µM | NCI-H522 > 100 µM | SW-620 > 100 µM | XF498 > 100 µM | SF-268 > 100 µM | M14 > 100 µM | SNB-75 69.5 µM | DMS-273 > 100 µM | SN12C > 100 µM | SK-MEL-2 16.8 µM | NCI-H226 > 100 µM | RXF 631 > 100 µM | CCRF-CEM > 100 µM | UO-31 > 100 µM | ACHN > 100 µM | HCC 2998 16.9 µM | SK-OV-3 > 100 µM | HL-60 > 100 µM | KM-20L2 > 100 µM | OVCAR-4 > 100 µM | UACC-62 > 100 µM | KM12 > 100 µM | DMS-114 > 100 µM | K562 > 100 µM | OVCAR-8 > 100 µM | NCI-H460 > 100 µM | 786-0 17.4 µM | DLD-1 24.7 µM | UACC-257 > 100 µM | MOLT-4 > 100 µM | OVCAR-5 > 100 µM | SNB-19 > 100 µM | IGROV-1 > 100 µM | NCI-H23 > 100 µM | SK-MEL-5 > 100 µM | U-251 > 100 µM | COLO 205 > 100 µM | HOP-92 > 100 µM | SK-MEL-28 > 100 µM | TK-10 > 100 µM | HT-29 > 100 µM | HCT-116 > 100 µM | SNB-78 > 100 µM | A498 > 100 µM | SF-295 > 100 µM
> 100 µM: HCT-15
